Test results taken from ChEMBL document CHEMBL5724914, “Linking interpersonal differences in gut microbiota composition and drug biotransformation activity” (2024).

What was measured:
[1] = human gut metagenome, 24 h, 2 µM
[2] = human gut metagenome, 24 h, 2 µM; remark: listed apart in the source
[3] = human gut metagenome, 24 h, 2 µM; remark: listed apart in the source
[4] = (§1) The drug is tested on WLS-170 corresponding to human gut metagenome with ENA study accession number: PRJEB37062 and ENA sample accession number: ERS12561762 for biotransformation under anaerobic condition. The drug concentrations were measured over 9 timepoints collected between 0 and 24 hours of incubation by liquid-chromatography-coupled mass spectrometry (LC–MS); conditions: 2 µM
[5] = human gut metagenome, 24 h, 2 µM; remark: listed apart in the source
[6] = as §1, with “WLS-010” for “WLS-170”, “ERS12561743” for “ERS12561762”; conditions: 2 µM
[7] = human gut metagenome, 24 h, 2 µM; remark: listed apart in the source
[8] = as §1, with “WLS-069” for “WLS-170”, “ERS12561748” for “ERS12561762”; conditions: 2 µM
[9] = human gut metagenome, 24 h, 2 µM; remark: listed apart in the source
[10] = human gut metagenome, 24 h, 2 µM; remark: listed apart in the source
[11] = human gut metagenome, 24 h, 2 µM; remark: listed apart in the source
[12] = as §1, with “WLS-220” for “WLS-170”, “ERS12561769” for “ERS12561762”; conditions: 2 µM
[13] = as §1, with “WLS-006” for “WLS-170”, “ERS12561741” for “ERS12561762”; conditions: 2 µM
[14] = human gut metagenome, 24 h, 2 µM; remark: listed apart in the source
[15] = human gut metagenome, 24 h, 2 µM; remark: listed apart in the source
[16] = human gut metagenome, 24 h, 2 µM; remark: listed apart in the source
[17] = as §1, with “Z-013” for “WLS-170”, “rabbit” for “human”, “ERS12561813” for “ERS12561762”; conditions: 2 µM
[18] = human gut metagenome, 24 h, 2 µM; remark: listed apart in the source
[19] = as §1, with “Z-010” for “WLS-170”, “to” for “to human gut”, “ERS12561810” for “ERS12561762”; conditions: 2 µM
[20] = as §1, with “Z-004” for “WLS-170”, “to” for “to human gut”, “ERS12561804” for “ERS12561762”; conditions: 2 µM
Further: call rule not given here.

Row | Structure (SMILES) | Bacterial Biotransformation [1] | Bacterial Biotransformation [2] | Bacterial Biotransformation [3] | Bacterial Biotransformation [4] | Bacterial Biotransformation [5] | Bacterial Biotransformation [6] | Bacterial Biotransformation [7] | Bacterial Biotransformation [8] | Bacterial Biotransformation [9] | Bacterial Biotransformation [10] | Bacterial Biotransformation [11] | Bacterial Biotransformation [12] | Bacterial Biotransformation [13] | Bacterial Biotransformation [14] | Bacterial Biotransformation [15] | Bacterial Biotransformation [16] | Bacterial Biotransformation [17] | Bacterial Biotransformation [18] | Bacterial Biotransformation [19] | Bacterial Biotransformation [20]
1 | CN1CCc2cccc3c2[C@H]1Cc1ccc(O)c(O)c1-3 [APOMORPHINE] | Compound NOT metabolized | Compound NOT metabolized | Compound NOT metabolized | Compound NOT metabolized | Compound NOT metabolized | Compound NOT metabolized | Compound NOT metabolized | Compound NOT metabolized | Compound NOT metabolized | Compound NOT metabolized | Compound NOT metabolized | Compound NOT metabolized | Compound NOT metabolized | Compound NOT metabolized | Compound NOT metabolized | Compound NOT metabolized | Compound metabolized |  |  | 
2 | OC(CCN1CCCCC1)(c1ccccc1)C1CC2C=CC1C2 (stereo not given) [BIPERIDEN] | Compound NOT metabolized | Compound NOT metabolized | Compound metabolized | Compound metabolized | Compound NOT metabolized | Compound NOT metabolized | Compound NOT metabolized | Compound NOT metabolized | Compound NOT metabolized | Compound NOT metabolized | Compound NOT metabolized | Compound NOT metabolized | Compound metabolized | Compound metabolized | Compound NOT metabolized | Compound NOT metabolized |  | Compound NOT metabolized |  | 
3 | CS(=O)(=O)O.O.O.O.O=C1Cc2cc(CCN3CCN(c4nsc5ccccc45)CC3)c(Cl)cc2N1 [ZIPRASIDONE MESYLATE] | Compound NOT metabolized | Compound metabolized | Compound metabolized | Compound metabolized | Compound NOT metabolized | Compound NOT metabolized | Compound NOT metabolized | Compound metabolized | Compound metabolized | Compound metabolized | Compound metabolized | Compound metabolized | Compound metabolized | Compound metabolized | Compound metabolized | Compound NOT metabolized |  | Compound metabolized |  | 
4 | C#C[C@]1(O)CC[C@H]2[C@@H]3CCC4=Cc5oncc5C[C@]4(C)[C@H]3CC[C@@]21C [DANAZOL] |  | Compound metabolized |  |  | Compound metabolized | Compound metabolized |  | Compound metabolized |  | Compound metabolized |  | Compound metabolized | Compound metabolized |  | Compound metabolized |  |  |  | Compound metabolized | 
5 | CC(=O)O[C@]1(C(C)=O)CC[C@H]2[C@@H]3C=C(Cl)C4=CC(=O)[C@@H]5C[C@@H]5[C@]4(C)[C@H]3CC[C@@]21C [CYPROTERONE ACETATE] | Compound NOT metabolized | Compound metabolized | Compound metabolized | Compound metabolized | Compound metabolized | Compound metabolized | Compound metabolized | Compound metabolized | Compound metabolized | Compound metabolized | Compound metabolized | Compound metabolized | Compound metabolized | Compound metabolized | Compound metabolized | Compound metabolized |  | Compound metabolized | Compound metabolized | 
6 | C[C@@H]1CC[C@H]2[C@@H](C)C(=O)O[C@@H]3O[C@@]4(C)CC[C@@H]1[C@]32OO4 [ARTEMISININ] | Compound metabolized | Compound metabolized | Compound metabolized | Compound metabolized | Compound metabolized | Compound metabolized |  | Compound metabolized | Compound metabolized | Compound NOT metabolized | Compound metabolized | Compound metabolized | Compound metabolized |  | Compound metabolized | Compound metabolized |  | Compound metabolized |  | 
7 | CN1C[C@H](C(=O)N[C@]2(C)O[C@@]3(O)[C@@H]4CCCN4C(=O)[C@H](Cc4ccccc4)N3C2=O)C=C2c3cccc4[nH]cc(c34)C[C@H]21.CN1C[C@H](C(=O)N[C@]2(C)O[C@@]3(O)[C@@H]4CCCN4C(=O)[C@H](Cc4ccccc4)N3C2=O)C=C2c3cccc4[nH]cc(c34)C[C@H]21.O=C(O)C(O)C(O)C(=O)O [ERGOTAMINE TARTRATE] | Compound metabolized | Compound metabolized | Compound metabolized | Compound metabolized | Compound metabolized | Compound metabolized | Compound metabolized | Compound metabolized | Compound metabolized |  | Compound NOT metabolized |  | Compound metabolized | Compound metabolized | Compound metabolized | Compound metabolized |  | Compound metabolized |  | 
8 | CN1CCN(CC/C=C2/c3ccccc3Sc3ccc(S(=O)(=O)N(C)C)cc32)CC1 [THIOTHIXENE] | Compound metabolized | Compound metabolized | Compound metabolized | Compound metabolized | Compound metabolized | Compound metabolized | Compound metabolized | Compound metabolized | Compound metabolized | Compound metabolized | Compound NOT metabolized | Compound metabolized | Compound metabolized | Compound metabolized | Compound metabolized | Compound metabolized |  | Compound metabolized |  | 
9 | COC(=O)C1=C(C)NC(C)=C(C(=O)OC(C)C)C1c1cccc2nonc12 (stereo not given) [ISRADIPINE] | Compound NOT metabolized | Compound metabolized | Compound metabolized | Compound metabolized | Compound metabolized | Compound metabolized | Compound metabolized | Compound metabolized | Compound metabolized | Compound metabolized | Compound NOT metabolized | Compound metabolized | Compound NOT metabolized | Compound metabolized | Compound metabolized | Compound metabolized |  | Compound metabolized |  | Compound metabolized
10 | CN(C(=O)CN(CCO)CC(=O)N(C)C(C)(C)Cc1ccccc1)C(C)(C)Cc1ccccc1 [OXETHAZAINE] | Compound metabolized | Compound metabolized | Compound metabolized | Compound metabolized | Compound metabolized | Compound metabolized | Compound metabolized | Compound metabolized | Compound metabolized | Compound metabolized | Compound NOT metabolized | Compound metabolized | Compound metabolized | Compound metabolized | Compound metabolized | Compound metabolized |  | Compound metabolized |  | 
